The nature of the series: gradient 5% acetonitrile 3 min, to 50% in 2 min, to 85% in 15 min, held 3 min, 100 µL/min. The conditions noted are these: column: Zorbax Extend-C18 2.1 x 50 mm; eluents: water / acetonitrile, 0.1% formic acid. In short, it runs like this: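 Using water and acetonitrile that each contained 0.1% formic acid, mixtures of ~100 pure standards were separated at 100 μL/min on a Zorbax Extend-C18 column (2.1 × 50 mm, 1.8 μm). The HPLC fed a quadrupole time-of-flight mass spectrometer working in positive and negative ionization mode, with dead and dwell volumes of 40 μL and 900 μL. Data were acquired over 3 months. Retention time was read from computationally picked adduct peaks after manual inspection of each.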
For `CCC(C)NC(=O)CCn1c(=O)c2ccccc2n2c(=O)n(Cc3cccc(F)c3)nc12` (stereo not given), the RP-LC retention time turned out to be 816 s. In turn, `Cn1nccc1-c1cccc(-c2noc(CNC(=O)c3ccco3)n2)c1` had an RP-LC retention time of 733 s.

`O=C(NCCc1csc(C2CCCN(C(=O)C3CCOC3)C2)n1)C1CC1` (stereo not given) had an RP-LC retention time of 753 s.

On to `CCOC(=O)C1=C(CN2CCC(c3ccccc3)C2)NC(=O)NC1c1cccs1` (stereo not given), for which the RP-LC retention time turned out to be 681 s. For `COc1cccc2cc(-c3nnc(NC(=O)NC4CCCC4)o3)oc12` the value was 830 s. In the case of `CC(=O)Nc1ccc(OCC(O)CN2CCC(Cc3ccccc3)CC2)cc1` (stereo not given) it was 577 s; in that of `O=C(CN1CCN(Cc2ccc(F)cc2)C(=O)C1=O)N1CCN(c2cccc(Cl)c2)CC1`, 829 s; in that of `NCC(O)COCC1COc2ccccc2O1` (stereo not given), 549 s. For `CCN1CCN(CCNC(=O)Cc2cccn2-c2ccc(Cl)cc2)CC1` the value was 612 s; for `Cc1ccc([C@@H]2O[C@H](CO)[C@@H](O)[C@H](O)[C@H]2O)cc1Cc1ccc(-c2ccc(F)cc2)s1`, 847 s. In turn, `O=C(Nc1ccnc2ccc(Cl)cc12)c1ccc(S(=O)(=O)NC2CC2)cc1` displayed an RP-LC retention time of 656 s. `COc1ccc(-n2c(=O)c3sccc3n(Cc3nc(-c4cccc(C)c4)no3)c2=O)cc1` registered an RP-LC retention time of 1020 s. For `Cc1ccccc1Nc1c(-c2ccc(N(C)C)cc2)nc2cccc(C)n12` the value was 811 s; for `COc1ccc(CNC(=O)c2nnc(-c3ccc(S(=O)(=O)N4CCC(C)CC4)cc3)o2)cc1`, 1020 s.

Regarding `CCOc1ccc(Nc2nc(C(=O)Nc3ccc(S(N)(=O)=O)cc3)cs2)cc1`, the RP-LC retention time was found to be 761 s. In the case of `CCOc1ccc(-c2csc(NC(=O)CCCOc3ccc(Cl)cc3)n2)cc1` it was 810 s; in that of `COCCNC(=O)C1CCN(C(=O)c2cc3ccsc3n2Cc2ccc(Cl)cc2)CC1`, 843 s. For `COCC(=O)Nc1cnc(N2CCCCC2)nc1` the value was 683 s; for `Cn1ncc2c3ccccc3n(CCCC(=O)NCCCN3CCN(c4ccccc4)CC3)c2c1=O`, 672 s; for `COC[C@@H]1CN(Cc2c(C)n[nH]c2C)C[C@H]1c1ccncc1`, 559 s. For `Cc1cc2c(cc1S(=O)(=O)N1CCCC1C(=O)NCc1ccc3c(c1)OCO3)OC(C)C(=O)N2` (stereo not given) the value was 755 s; for `COc1cccc(C(=O)NC2CCN(c3cc(-c4cccs4)[nH]n3)C2)c1OC` (stereo not given), 722 s.

In turn, `CCOC(=O)c1noc2nc(C)nc(NCCc3ccc(OCC)cc3)c12` gave an RP-LC retention time of 1170 s. In the case of `COc1cc(NC(=O)Nc2nccn(-c3ccc(C(C)C)cc3)c2=O)cc(OC)c1` it was 1110 s; in that of `CCCN(Cc1ccsc1)C(=O)c1ccc(OC)c(OC)c1OC`, 880 s; in that of `CCn1c(=O)sc2cc(S(=O)(=O)N3CCC(C(=O)Nc4cccc(C)c4)CC3)ccc21`, 962 s. In the case of `COc1ccc(-c2noc(Cc3nnc(-c4cc(C)cc(C)c4)o3)n2)cc1` it was 1110 s; in that of `COCCNC(=O)c1cc2c(n(-c3ccc(F)cc3)c1=O)CCCC2=O`, 701 s. On to `CCc1cccc(NC(=O)Cn2cnc3c(sc4nc(-c5ccccc5)ccc43)c2=O)c1`, for which the RP-LC retention time was 1100 s.

In the case of `Cc1nnc2c(=O)n(CC(=O)N3CCN(c4ccccc4)CC3)c3cccnc3n12`, the RP-LC retention time was found to be 682 s.

Regarding `Cc1ccc(CNC(=O)C2(C)Cn3nc(C(=O)NCc4cccc(C)c4)cc3C(=O)N2C)cc1` (stereo not given), the RP-LC retention time is 824 s. In the case of `Cc1csc(-c2cc(S(=O)(=O)Nc3ccc(F)c(Cl)c3)c(C)s2)n1`, the RP-LC retention time was 1070 s. For `CCC(CC)CN1CCC(n2c(C)cnc2-c2ccccc2)C1` (stereo not given) the value was 559 s; for `CCOC(=O)N1CCC(NC(=O)C2CCCN(c3cc(=O)n(C)c(=O)n3C)C2)CC1` (stereo not given), 621 s; for `Cc1ccccc1Cn1c(CN2CCC(C(=O)N3CCCC3)CC2)cc2ccccc21`, 757 s. For `COc1ccccc1OCCN1C(=O)C(NC(C)=O)c2ccccc21` (stereo not given) the value was 666 s. For `Cc1sc(-c2noc(C3CC3)n2)cc1S(=O)(=O)N1CCC(C(=O)NCc2ccco2)CC1` the value was 945 s; for `CC(C)(C)C(=O)N1C[C@@H](CO)[C@H](c2nc(-c3ccncc3)no2)C1`, 631 s; for `COc1ccccc1NC(=O)N1CCN(CCn2c(C(F)(F)F)nc3cccnc32)CC1`, 630 s. `C=C(C)CSc1nnc(-c2ccc(OC)cc2)o1` registered an RP-LC retention time of 1030 s. For `O=C(CCn1nnc2cc(-c3noc(/C=C/c4ccccc4)n3)ccc21)N1CCCC1` the value was 954 s; for `O=C(Cc1ccc(F)cc1)Nc1cc(-c2cccs2)no1`, 926 s. For `Cn1nc(C(=O)N2CCCC2)c2c1CCN(C(=O)CCC(=O)NC1CCCCCC1)C2` the value was 696 s; for `CCn1nnc2c(N3CCN(S(=O)(=O)c4cccc(C(F)(F)F)c4)CC3)ncnc21`, 894 s; for `Cc1cc(C)cc(NC(=O)C2CCN(S(=O)(=O)c3cn(C)cn3)CC2)c1`, 732 s. For `CCCc1ccc(S(=O)(=O)N2CCC(n3c(-c4ccco4)nc4cccnc43)C2)cc1` (stereo not given) the value was 1010 s; for `CCCNC(=O)C1CCCN(c2nc3ncn(CC(=O)Nc4ccc(C)cc4C)c(=O)c3s2)C1` (stereo not given), 703 s.

Consider `O=C1C(N2CCN(S(=O)(=O)c3ccc(Cl)s3)CC2)CCN1Cc1ccccn1` (stereo not given), for which the RP-LC retention time was 613 s. For `COCc1nc2ccccc2n1CC(=O)NCC1CCCO1` (stereo not given) the value was 532 s; for `CCc1cc(C(=O)Nc2cc(C)ccc2F)nc2ccnn12`, 1150 s; for `O=C(C1CCN(c2nnc(-c3ccccc3)o2)CC1)N1CCCCC1`, 760 s. In the case of `COc1cccc(CN2CCc3nn(Cc4ccccc4)c(=O)n3CC2)n1` it was 580 s; in that of `CCN(CC)CCNC(=O)c1cn(C)nc1S(=O)(=O)N1CCN(c2ccc(Cl)cc2)CC1`, 707 s; in that of `Cc1cc(C)n(C(CC(=O)O)C(=O)O)n1` (stereo not given), 525 s. In the case of `O=C(/C=C/c1cccnc1)c1ccccc1O` it was 817 s; in that of `CCCn1c(-c2cccc(C(=O)NCc3cccs3)c2)nc2cccnc21`, 782 s; in that of `Cc1ccc(NC(=O)Cn2nc(N3CCCC(C)C3)c3ccccc3c2=O)cc1F` (stereo not given), 1220 s.

`O=C(NCC1CCN(C(=O)c2cc3ccccc3o2)CC1)Nc1c(F)cccc1F`: the RP-LC retention time was found to be 729 s. For `Cc1ccccc1CNC(=O)C1CCCN(c2nccnc2Sc2ccccc2)C1` (stereo not given) the value was 1200 s. In the case of `O=c1n(Cc2cccc(F)c2)nc2c(-c3nc(-c4cccc(F)c4)no3)cccn12` it was 1030 s; in that of `CC(C(=O)NC1CCN(Cc2ccccc2)CC1)n1c(=O)c(C(F)(F)F)nc2ccccc21` (stereo not given), 731 s. The compound `CCc1ccc(-n2nc(N3CCCC(C(=O)NCc4ccc(OC)cc4OC)C3)ccc2=O)cc1` (stereo not given) came in with an RP-LC retention time of 872 s. In the case of `CCCNC(=O)c1cc2sccc2n1C` it was 816 s; in that of `COc1ccc(NC(=O)c2noc3c2CCCC3)c(OC)c1`, 1170 s. For `C=CCN1C(=O)COc2ccc(-c3csc(NC(=O)C(C)C)n3)cc21` the value was 895 s. For `CC(=O)N1CCc2sc(S(=O)(=O)N3CCN(c4ccccc4Cl)CC3)cc2C1` the value was 945 s. The compound `COc1ccc(NC(=O)Cn2nc(C(=O)N3CCOCC3)c3ccccc32)cc1` gave an RP-LC retention time of 712 s. In turn, `COc1ccc(NC(=O)Nc2cccc(-c3ccc(N4CCOCC4)nn3)c2)cc1OC` came in with an RP-LC retention time of 586 s. For `CN(C)C(=O)c1ccc2c(c1)nc(CN(C)C(=O)Nc1ccccc1Cl)n2C` the value was 611 s. For `CCCn1ccc2sc(C)c(C(=O)NCc3cccc(C)c3)c2c1=O` the value was 948 s; for `O=C(C1CC1)N1CCC(N(Cc2cccnc2)C2CCOCC2)CC1`, 550 s; for `O=C(c1ccc(Cl)cc1Cl)N1CCN(c2cc(-c3ccc(Cl)cc3)[nH]n2)CC1`, 981 s. For `COc1ccc2c(c1)C1(CCN(C(=O)Cc3cccc(F)c3)C1)C(=O)N2` (stereo not given) the value was 740 s; for `CC(=O)c1cccc(NC(=O)Cn2c(N3CCc4ccccc4C3)nc(C)cc2=O)c1`, 723 s. On to `O=C(Nc1ccc(N2CCOCC2)cc1)c1cccs1`, for which the RP-LC retention time stood at 658 s. For `COc1ccc(-c2nc(-c3nnn(-c4ccccc4)c3C)no2)c(OC)c1` the value was 1000 s.

Compound `O=C(CCC1CCCN(S(=O)(=O)c2ccccc2F)C1)NC1CCCCC1` (stereo not given) showed an RP-LC retention time of 952 s. For `CCn1c(CCNC(=O)c2cc(F)ccc2F)nc2cccnc21` the value was 641 s; for `COc1ccccc1C(=O)Nc1nc(-c2ccc3c(c2)N(C)C(=O)CO3)cs1`, 969 s.

Regarding `Cc1cc(Cl)cc2sc(NCC3CCCO3)nc12` (stereo not given), the RP-LC retention time was 958 s.

(Values after the METLIN SMRT retention time set (Domingo-Almenara et al. 2019).)
